According to patent US12415811B2, “1,2,3',5'-tetrahydro-2'h-spiro[indole-3,1'-pyrrolo[3,4-C]pyrrole]-2,3'-dione compounds as therapeutic agents activating TP53” (ADAMED PHARMA, S.A., priority 2018, dated 2025):
Where two headings read alike, the source gives them in different places.

How the values were obtained:
[1] = molecular target: p53-Mdm2 interaction (Homo sapiens (Human), UniProt Q00987); test: Fluorescence polarization (FP) binding assay, inhibition of p53-Mdm2 interaction; conditions: 75 nM Mdm2 (amino acids 1-111), 10 nM FAM-labelled p53 peptide; IC50 transformed to Ki using Kenakin equation
Sequence of p53-Mdm2 interaction (Q00987 1-111): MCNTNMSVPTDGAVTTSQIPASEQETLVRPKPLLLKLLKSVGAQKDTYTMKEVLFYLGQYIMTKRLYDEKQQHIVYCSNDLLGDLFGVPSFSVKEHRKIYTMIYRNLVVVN
Experimental: The inhibition of p53-Mdm2 interaction was measured using a fluorescence polarization (FP) binding assay. FP measures the rotational movement of molecules in a homogenous suspension. For this assay, N-terminal domain of Mdm2 protein (amino acids 1-111) is combined with a fluorescein-labeled (FAM) peptide derived from p53 trans-activation domain (Sequence: 5-FAM-TSFAEYWNLLSP). Upon excitation of the fluorescent ligand with linearly polarized light the peptide emits perpendicularly polarized light. If the peptide is bound by Mdm2, rotation will slow down and the perpendicular component will proportionally decrease. In opposition disruption of the peptide-Mdm2 complex due to binding of an inhibitor to the p53 binding site of Mdm2 results in releasing of peptide and decreasing of emitted light polarization.
Fluorescence polarization experiments were read on Biotek Cytation 5 reader with the 470 nm excitation and 520 nm emission filters for fluorescein. The fluorescence polarization was measured in black 96-well plates (Corning, CLS3991) in room temperature. Purity of Mdm2 was controlled at >95%. Reaction buffer was optimized by adding 5 mM DTT and 0.1% zwitterionic detergent CHAPS to reduce effect of nonspecific interactions.
The test was performed by combining successive dilution of compounds diluted in dimethyl sulfoxide (DMSO, 5% final concentration) with 75 nM Mdm2 in reaction buffer (PBS, 0.1% CHAPS, 5 mM DTT (dithiothreitol)). After 15 minutes of incubation in room temperature 10 nM FAM-labelled peptide was added. Final reading was performed after 90 minutes of incubation. Dose-dependent binding curves and IC50 values were calculated using GraphPad Prism5 and next transformed to Ki values using Kenakin equation (Table 2).

[2] = In vitro intrinsic clearance in murine microsomes; type: in vitro ADME; conditions: mouse, pH 7.4; murine microsomes 0.5 mg/ml, 1 μM compound, 37° C., up to 1 hour; read-out: murine MS Clint
Experimental: (§1) Metabolic stability of the compounds of the invention has been assessed by measurement of the in vitro intrinsic clearance in murine and human microsomes.
(§2) 10 mM stock solutions of markers and test compounds were prepared in DMSO. These were diluted 100-fold in 91:9 MeCN:DMSO to obtain a 100 μM assay stock. 10 mM NADPH was made up in 0.1M phosphate buffer (pH7.4). Microsomes were thawed in a waterbath at 37° C., and diluted to give a final assay concentration of 0.5 mg/ml.
(§3) 100 μM assay stocks were added to give a final concentration of 1 μM to incubation tubes containing buffer and NADPH (final assay concentration is 1 mM). Incubation tubes and microsomes were pre-warmed at 37° C. for 3 minutes. The microsomes were then added to the incubation tubes which were kept at 37° C. and shaken using the orbital shaker for the duration of the assay. Samples were taken at 6 pre-determined time points up to 1 hour and transferred to the prepared quench tubes containing an appropriate solvent with internal standard.
(§4) Quenched samples are mixed thoroughly and protein precipitated at −20° C. for a minimum of 12 hours. Samples were then centrifuged at 4° C. Supernatants were transferred to a fresh 96 well plate, compatible with the auto-sampler. The plate was sealed with a pre-slit silicone mat and analyzed by LC-MS/MS.

[3] = tested on: SJSA-1 osteosarcoma cell line; test: Cell viability MTT assay; type: cell-based; conditions: Homo sapiens, 72 h incubation, average of 2-5 experiments
Experimental: The effect of the invented p53-Mdm2 inhibitors on cell viability has been assessed using MTT assay. It is a colorimetric assay that measures conversion of tetrazolium ring of the soluble yellow dye (MTT) into insoluble purple formazan. This process is catalyzed solely in mitochondrial dehydrogenases of living cells.
Cells were seeded on 96-well plates and then treated with successive dilutions of tested compounds. After 72 h incubation, MTT was added to the final concentration 0.5 mg/ml. The cells were further incubated for the next 4 h. Then the solution was drained and the remaining formazan crystals were dissolved in 100 μl DMSO. […] All the MTT experiments were independently repeated 2-5 times. Dose-dependent binding curves and IC50 values were calculated using GraphPad Prism 5. The presented IC50 values represent the average value from all the performed experiments (Table 3).

[4] = tested on: SJSA-1 xenograft; test: In vivo efficacy in the SJSA-1 xenograft model in mice; conditions: for inhibition in vivo at 12.5 mg/kg: Mus musculus, po, 12.5 mg/kg p.o., q1d, SJSA-1 xenograft in Crl:CD-1-Foxn1nu mice, mean; for effect of treatment on tumors (in words): 14 doses of 12.5 mg/kg p.o., SJSA-1 xenograft; for regrowth of lesions during follow-up: after 14 doses of 12.5 mg/kg p.o., follow-up to day 101
Experimental: The experiment was conducted on female mice from the Crl:CD-1-Foxn1nu strain. Mice were inoculated subcutaneously in the right flank with cancer cell line SJSA-1 in the amount of 3×10^6 cells suspended in 100 μl HBSS: Matrigel matrix in a 3:1 ratio per mouse. On the 17th day after inoculation mice were divided into groups, so that in each group the mean tumor volume was similar and averaged around 200 mm^3. Experiment groups were selected, each consisting of 8 mice: Control NaCl 0.9% and compounds. Compounds 1-11 were dissolved in 56.60% PEG 400, 9.43% Cremophor RH40, 9.43% ETOH, 18.87% Labrafil M1944CS, 5.67% DMSO. For Compound 107 from WO2015/189799, group of 7 mice was used, and it was dissolved in 15% PEG400, 10% Cremophor EL, 75% H2O.
[…] During the course of experiment mice were weighed before each administration, —twice/thrice a week. Animal welfare was monitored daily. No significant difference in body weight or welfare was observed between experiment groups during and at the end of study.
Change in tumor volume was monitored twice/thrice a week starting from the first day of administration. Tumor volume was calculated based on its length and width measured with an electronic calipers: V[mm^3]=d^2×D/2
The tumor volume in the groups was measured up to 101 days after inoculation (72 days after last administration). Results of the experiment were expressed as mean values of tumor growth inhibition (TGI) ±SEM (Table 4). Tumor growth inhibition was calculated using the following formula TGI [%]=[100−[…]]
where C— mean tumor size in control group, T—mean tumor size in treated group. All calculations and graphs were performed using GraphPad Prism 5 software.

[5] = In vitro intrinsic clearance in human microsomes; type: in vitro ADME; conditions: pH 7.4; human microsomes 0.5 mg/ml, 1 μM compound, 37° C., up to 1 hour; read-out: human MS Clint
Experimental: as §1, §2, §3, §4

[6] = after 7 doses, read-out: TGI P.O. 12.5 mg/kg (7 doses) [%]
[7] = after 12 doses, read-out: TGI P.O. 12.5 mg/kg (12 doses) [%]

Ki [1] [nM]	microsomal CLint at 1 μM [2] [µL/min/mg]	IC50 [3] [µM]	microsomal CLint at 1 μM [5] [µL/min/mg]	SMILES	inhibition in vivo at 12.5 mg/kg [4, 6] [%]	inhibition in vivo at 12.5 mg/kg [4, 7] [%]	effect of treatment on tumors (in words) [4]	regrowth of lesions during follow-up [4]
1.7	< 4	0.16	< 3	COc1ncc(-n2cc3c(c2C(C)C)[C@@]2(C(=O)Nc4cc(Cl)ccc42)N(c2cc(Cl)ccc2F)C3=O)c(OC)n1 [Compound 2, (3S)-6-chloro-2′-(5-chloro-2-fluorophenyl)-5′-(2,4-dimethoxypyrimidin-5-yl)-6′-(propan-2-yl)-1,2,3′,5′-tetrahydro-2′H-spiro[indole-3,1′-pyrrolo[3,4-c]pyrrole]-2,3′-dione]	94.4	98.9		
1.7	< 3	0.32	< 3	COc1ncc(-n2cc3c(c2C(C)C)[C@@]2(C(=O)Nc4cc(Cl)ccc42)N(c2ccc(F)c(Cl)c2)C3=O)c(OC)n1 [Compound 4, (3S)-6-chloro-2′-(3-chloro-4-fluorophenyl)-5′-(2,4-dimethoxypyrimidin-5-yl)-6′-(propan-2-yl)-1,2,3′,5′-tetrahydro-2′H-spiro[indole-3,1′-pyrrolo[3,4-c]pyrrole]-2,3′-dione]	94.9	99.5		
2		0.12		COc1cc(OC)c(-n2cc3c(c2C(C)C)[C@@]2(C(=O)Nc4cc(Cl)ccc42)N(c2cc(Cl)ccc2F)C3=O)cn1 [Compound 9, (3S)-6-chloro-2′-(5-chloro-2-fluorophenyl)-5′-(4,6-dimethoxypyridin-3-yl)-6′-(propan-2-yl)-1,2,3′,5′-tetrahydro-2′H-spiro[indole-3,1′-pyrrolo[3,4-c]pyrrole]-2,3′-dione]	89.5	97.7		
2.5		0.05		CCC(C)c1c2c(cn1-c1cnc(OC)nc1OC)C(=O)N(c1cc(Cl)ccc1F)[C@]21C(=O)Nc2cc(Cl)ccc21 (stereo partly drawn) [Compound 11, (3)-6′-(butan-2-yl)-6-chloro-2′-(5-chloro-2-fluorophenyl)-5′-(2,4-dimethoxypyrimidin-5-yl)-1,2,3′,5′-tetrahydro-2′H-spiro[indole-3,1′-pyrrolo[3,4-c]pyrrole]-2,3′-dione]	93.7	99.7	complete eradication of tumors	none of the lesions exhibited regrowth

More lines, now with the values behind:

SMILES	Ki [1] [nM]	microsomal CLint at 1 μM [2] [µL/min/mg]	IC50 [3] [µM]	microsomal CLint at 1 μM [5] [µL/min/mg]	inhibition in vivo at 12.5 mg/kg [4, 6] [%]	inhibition in vivo at 12.5 mg/kg [4, 7] [%]	effect of treatment on tumors (in words) [4]	regrowth of lesions during follow-up [4]
COc1ncc(-n2cc3c(c2C(C)C)[C@@]2(C(=O)Nc4cc(Cl)ccc42)N(c2cccc(Cl)c2)C3=O)c(OC)n1 [Compound 1, (3S)-6-chloro-2′-(3-chlorophenyl)-5′-(2,4-dimethoxypyrimidin-5-yl)-6′-(propan-2-yl)-1,2,3′,5′-tetrahydro-2′H-spiro[indole-3,1′-pyrrolo[3,4-c]pyrrole]-2,3′-dione]	1.8	8.8	0.18	< 3	95	99.5		
COc1nc(OC)c(-n2cc3c(c2C(C)C)[C@@]2(C(=O)Nc4cc(Cl)ccc42)N(c2cc(Cl)ccc2C)C3=O)c(OC)n1 [Compound 3, (3S)-6-chloro-2′-(5-chloro-2-methylphenyl)-6′-(propan-2-yl)-5′-(trimethoxypyrimidin-5-yl)-1,2,3′,5′-tetrahydro-2′H-spiro[indole-3,1′-pyrrolo[3,4-c]pyrrole]-2,3′-dione]	2.4	< 3	0.07	< 3	94.2	99.6		
COc1nc(OC)c(-n2cc3c(c2C(C)C)[C@@]2(C(=O)Nc4cc(Cl)ccc42)N(c2cc(Cl)ccc2F)C3=O)c(OC)n1 [Compound 5, (3S)-6-chloro-2′-(5-chloro-2-fluorophenyl)-6′-(propan-2-yl)-5′-(trimethoxypyrimidin-5-yl)-1,2,3′,5′-tetrahydro-2′H-spiro[indole-3,1′-pyrrolo[3,4-c]pyrrole]-2,3′-dione]	2.2	< 3	0.18	< 3	85.8	96		
COc1cc(N(C)C)ncc1-n1cc2c(c1C(C)C)[C@@]1(C(=O)Nc3cc(Cl)ccc31)N(c1cc(Cl)ccc1F)C2=O [Compound 6, (3S)-6-chloro-2′-(5-chloro-2-fluorophenyl)-5′-[6-(dimethylamino)-4-methoxypyridin-3-yl]-6′-(propan-2-yl)-1,2,3′,5′-tetrahydro-2′H-spiro[indole-3,1′-pyrrolo[3,4-c]pyrrole]-2,3′-dione]	1.7	33.6	0.03	19.8	92	99.1		
COc1ncc(-n2cc3c(c2C(C)C)[C@@]2(C(=O)Nc4cc(Cl)ccc42)N(c2ccc(F)c(F)c2)C3=O)c(OC)n1 [Compound 7, (3S)-6-chloro-2′-(3,4-difluorophenyl)-5′-(2,4-dimethoxypyrimidin-5-yl)-6′-(propan-2-yl)-1,2,3′,5′-tetrahydro-2′H-spiro[indole-3,1′-pyrrolo[3,4-c]pyrrole]-2,3′-dione]	1.9	6.6	0.22	< 3	95	100	complete eradication of tumors	none of the lesions exhibited regrowth
